According to patent US8663669B2, “Pesticide treatment of soils or substrates with sulphur compounds” (Arkema France, priority 2002, dated 2014):

What was measured:
[1] = system: soil microorganisms; experiment: Effect on soil microorganisms (oxygen consumed); details: 150 kg/ha (formulation A)
Method: The effect of DMDS, applied at 150 kg/ha in the form of formulation A, to soil microorganisms was evaluated according to the following standard methods: • “Recommended tests for assessing the side-effects of pesticides on the soil micro flora”, Technical Report Agricultural Research Council Weed Research Organization, 1980 (59). • “OECD Guideline for Testing of Chemicals—Soil Microorganisms: Carbon Mineralization Test”, Draft document, June 1996.
The effect of DMDS on soil microorganisms is measured by the reduction in the oxygen consumed by these microorganisms, expressed in mg O2 per kg of dry soil per h, 14, 28, 42, 57 days after the treatment (Table 14).

[2] = system: larvae of Meloidogyne arenaria; experiment: Nematicidal in vitro test on second-stage juvenile larvae; format: in vivo; details: for Immobility rate after 48 h: 24 h in solution then 24 h in pure water; for Immobility rate after 24 h: aqueous solution
Method: The second-stage juvenile larvae (the free and infesting stage) are immersed for 24 hours in the test solution and then the number of larvae paralysed are counted before transferring them into pure water for another 24 hours. At the end of the 48 hours which have thus elapsed, the larvae paralysed are again counted and the larvae truly dead are counted the next day.
The breeding of the nematodes was carried out on tomato plants. The tests were carried out with, aqueous solutions of DMDS at 0.0001%, 0.1%, 1% and 5% by mass, of DPDS at 1%, 5% and 10% by mass, and of allicin at 0.0003%, 0.0015% and 0.003% by mass, compared with a control consisting of pure water, and repeated five times. The ovicidal activity was also evaluated according to the same modalities, by counting the number of hatchings after 5 to 20 days following exposure to the products.

[3] = system: Phytophthora cactorum; experiment: Fungicidal efficacy by gassing, colonized millet grains; format: cell-based; set-up: Vitality score Nm (over 12 days): scale not given here; Reduction in viability RV / Reduction in vitality score RNm: unit not given here; details: for Reduction in viability RV / Reduction in vitality score RNm: compared with the control
From the text: These four organisms are the following:
Phytophthora cactorum, one of the best known representatives of the Phytophthora family, polyphagous fungi which attack mainly tomato, sweet pepper and strawberry plants, these three crops representing the majority of the worldwide consumption of methyl bromide. Phytophthora cactorum, in particular, attacks mainly the strawberry plant and fruit trees.
• Sclerotinia sclerotiorum: sclerotia • Sclerotium rolfsii: sclerotia • Rhizoctonia solani: colonized barley grains (mycelium and sclerotia) • Phytophthora cactorum: colonized millet grains (mycelium, sporangia and oospores) Preparation of the Fungi (24 h Before the Gassing Operation) 1. Preparation of the sclerotia of Sclerotinia sclerotiorum and of Sclerotium rolfsii: The fungi are cultured on malt agar medium until the sclerotia are obtained. The sclerotia are collected in a sterile manner and stored dry in empty Petri dishes until they are used. The sclerotia used for the trial are over 3 months old and are perfectly dormant. 2. Preparation of Phytophthora cactorum and of Rhizoctonia solani: The millet and barley used for the multiplication of the two fungi are moistened with ultrapure water by immersing for 24 hours. The grains are then slightly drained and then distributed into flasks and autoclaved (3 autoclavings at 110° C. for 20 minutes, 3 times at 24 hour intervals). Fragments of fungal culture are introduced into the flasks which are then incubated at 22° C.±2° C. (white light 18 h) until homogeneous colonization is obtained. The grains are then removed from the flasks in a sterile manner, dried in the sterile stream of a safety cabinet and then stored in the dry state until they are used. Conditions for Gassing and for Desorption
All the batches of fungi to be treated are placed for a few hours at the trial temperature (20° C.). Between 35 and 300 units of fungi or “propagules” (grains or sclerotia) are subjected to gassing during each trial.
Each fumigation chamber comprising to one or more species of fungi corresponds to a glass round-bottomed flask which is impervious to the gas and has a volume of 11 litres. Each round-bottomed flask is equipped with branch connections, one at the bottom for introducing the liquid DMDS, one at the top for collecting the air sample with a syringe.
Before introducing the gas, a partial vacuum (−500 mbar) is established in the round-bottomed flask with a vacuum pump. This makes it possible, on the one hand, to avoid the phenomenon of excess pressure due to the expansibility of DMDS in the round-bottomed flask and, on the other hand, to promote better homogeneity of the air-gas mixture in the first few seconds which follow injection. The DMDS (weighed accurately to the mg) is injected with a syringe, in liquid form, through the bottom branch connection, that is to say under the screen placed at half height of the round-bottomed flask and supporting the batches of fungi. After introducing the product, the internal pressure of the round-bottomed flask is re-established at atmospheric pressure. A magnetic stirrer operates during the entire duration of the treatment in order to properly homogenize the air-gas mixture.
At the end of the gassing, the cover for the round-bottomed flask is removed. One minute after this operation, the batches of fungi gassed are taken out and left in the open air for 15 minutes for desorption of the DMDS. They are then transferred into a Petri dish, the latter remaining open for 5 minutes to allow perfect desorption of the gas. […]

[4] = CT 1 050 g·h/m^3 (C 15.91 g/m^3, T 66 h)
[5] = CT 1 402 g·h/m^3 (C 21.24 g/m^3, T 66 h)
[6] = CT 1 450 g·h/m^3 (C 30.96 g/m^3, T 48 h)
[7] = CT 1 899 g·h/m^3 (C 28.77 g/m^3, T 66 h)
[8] = CT 1 981 g·h/m^3 (C 30.02 g/m^3, T 66 h)
[9] = CT 2 460 g·h/m^3 (C 51.25 g/m^3, T 48 h)
[10] = CT 2 837 g·h/m^3 (C 42.98 g/m^3, T 66 h)
[11] = CT 3 169 g·h/m^3 (C 48.02 g/m^3, T 66 h)
[12] = CT 3 467 g·h/m^3 (C 52.53 g/m^3, T 66 h)
[13] = CT 419 g·h/m^3 (C 17.46 g/m^3, T 24 h)
[14] = CT 625 g·h/m^3 (C 26.04 g/m^3, T 24 h)
[15] = CT 703 g·h/m^3 (C 29.29 g/m^3, T 24 h)
[16] = CT 907 g·h/m^3 (C 37.79 g/m^3, T 24 h)

Compound: CSSC [DMDS, dimethyl disulphide]
- Oxygen consumed by soil microorganisms ([1]; Day 0, untreated control 11.23): 9.70 mg O2 per kg of dry soil per h
- Oxygen consumed by soil microorganisms ([1]; Day 14, untreated control 10.18): 8.74 mg O2 per kg of dry soil per h
- Oxygen consumed by soil microorganisms ([1]; Day 28, untreated control 7.87): 6.62 mg O2 per kg of dry soil per h
- Oxygen consumed by soil microorganisms ([1]; Day 42, untreated control 9.12): 8.93 mg O2 per kg of dry soil per h
- Oxygen consumed by soil microorganisms ([1]; Day 57, untreated control 7.30): 4.90 mg O2 per kg of dry soil per h
- Mortality rate after 72 h ([2]; concentration by mass 1 %): 80%
- Immobility rate after 48 h ([2]; concentration by mass 1 %): 84%
- Immobility rate after 24 h ([2]; concentration by mass 1 %): 72%
- Mortality rate after 72 h ([2]; concentration by mass 5 %): 98%
- Immobility rate after 48 h ([2]; concentration by mass 5 %): 98%
- Immobility rate after 24 h ([2]; concentration by mass 5 %): 97%
- Nematostatic and nematicidal activity ([2]; concentration of greater than or equal to 1%): high nematostatic and nematicidal activity
- Nematicidal activity ([2]; concentration of less than 1%): no nematicidal activity
- Nematostatic activity ([2]; concentration of less than 1%): very weak nematostatic activity
- Viability V [3, 4]: 95%
- Vitality score Nm (over 12 days) [3, 4]: 5.5
- Reduction in viability RV [3, 4]: 5.0
- Reduction in vitality score RNm [3, 4]: 43.1
- Viability V [3, 5]: 97.8%
- Vitality score Nm (over 12 days) [3, 5]: 6.6
- Reduction in viability RV [3, 5]: 2.2
- Reduction in vitality score RNm [3, 5]: 32.2
- Viability V [3, 6]: 95%
- Vitality score Nm (over 12 days) [3, 6]: 5.4
- Reduction in viability RV [3, 6]: 3.4
- Reduction in vitality score RNm [3, 6]: 40.7
- Viability V [3, 7]: 97.8%
- Vitality score Nm (over 12 days) [3, 7]: 5.6
- Reduction in viability RV [3, 7]: 2.2
- Reduction in vitality score RNm [3, 7]: 42.6
- Viability V [3, 8]: 97.8%
- Vitality score Nm (over 12 days) [3, 8]: 5.3
- Reduction in viability RV [3, 8]: 2.2
- Reduction in vitality score RNm [3, 8]: 45.7
- Viability V [3, 9]: 43.3%
- Vitality score Nm (over 12 days) [3, 9]: 1.7
- Reduction in viability RV [3, 9]: 55.9
- Reduction in vitality score RNm [3, 9]: 81.2
- Viability V [3, 10]: 16.7%
- Vitality score Nm (over 12 days) [3, 10]: 0.6
- Reduction in viability RV [3, 10]: 83.3
- Reduction in vitality score RNm [3, 10]: 93.6
- Viability V [3, 11]: 1.1%
- Vitality score Nm (over 12 days) [3, 11]: 0.05
- Reduction in viability RV [3, 11]: 98.9
- Reduction in vitality score RNm [3, 11]: 99.5
- Viability V [3, 12]: 0%
- Vitality score Nm (over 12 days) [3, 12]: 0
- Reduction in viability RV [3, 12]: 100
- Reduction in vitality score RNm [3, 12]: 100
- Viability V [3, 13]: 91.7%
- Vitality score Nm (over 12 days) [3, 13]: 7.7
- Reduction in viability RV [3, 13]: 6.8
- Reduction in vitality score RNm [3, 13]: 15.5
- Viability V [3, 14]: 100%
- Vitality score Nm (over 12 days) [3, 14]: 8.05
- Reduction in viability RV [3, 14]: −1.7
- Reduction in vitality score RNm [3, 14]: 11.9
- Viability V [3, 15]: 100%
- Vitality score Nm (over 12 days) [3, 15]: 8.3
- Reduction in viability RV [3, 15]: −1.7
- Reduction in vitality score RNm [3, 15]: 9.1
- Viability V [3, 16]: 100%
- Vitality score Nm (over 12 days) [3, 16]: 7.2
- Reduction in viability RV [3, 16]: −1.7
- Reduction in vitality score RNm [3, 16]: 21.2
